Common to all, as to format: cell-based, human
In assay [1] the test system is HeLa CTL KD. Description: Cell survival, trypan blue counting. The note with it: 4.80 μM of AsiDNA and/or 0.1 μM of Ola; day 6 after treatment.
Method: (§1) Cells were grown according to the supplier's instructions. Cell lines were maintained at 37° C. in a humidified atmosphere at 5% CO2.
(§2) AsiDNA or PARPi cytotoxicity was measured by relative survival and cell death quantification. Adherent cells were seeded in 24-well culture plates at appropriate densities and incubated 24 hours at 37° C. before AsiDNA and/or PARPi addition. Cells were harvested day 6aftertreatment, stained with 0.4% trypan blue (Sigma Aldrich, Saint-Louis, USA) and counted with a Burker chamber. Cell survival was calculated as ratio of living treated cells to living mock-treated cells. Cell death was calculated as the number of dead cells on the total number of counted cells. Additivity of the toxicity was calculated by the product of cell survivals to AsiDNA and cell survivals to PARPi.
For assay [2], the system named is MO59K. Description: Cell survival, trypan blue counting. The note with it: 4.80 μM of AsiDNA and/or 0.1 μM of Ola; day 6 after treatment.
Method: as §1, §2
Assay [3] deals with Hut78. Description: Cell survival, trypan blue counting. Conditions: 4.80 μM of AsiDNA and/or 0.1 μM of Ola; day 6 after treatment.
Method: as §1, §2
Assay [4] deals with BRCA^−/− cell lines. Kind of assay: Cell death and proliferation in BRCA-mutated cell lines. Conditions: 0.1 μM Ola, 4.8 μM AsiDNA; sensitive = difference in % dead cells higher than two-fold. As to the method:
Efficacy of Ola and AsiDNA was assessed by measuring cell death and proliferation in 12BC cell lines including 4BRCA-mutated cell lines (FIGS. 4A and B and FIG. 5). In addition, HeLa cells silenced for BRCA1 or BRCA2 genes were used as a control of BRCA mutation factor and 3 immortalized mammary cell lines (MCF10A, MCF12A and 184B5) as non-tumor controls. The concentration of the drugs (0.1 μM for Ola and 4.8 μM for AsiDNA) were chosen based on the 75-80% survival in the BC227 BRCA2^−/− mutant. […] Ola and AsiDNA treatments had no effect on the three control non-tumor cell lines.
Cells were grown according to the supplier's instructions.

In assay [5] the test system is XRCC1. Description: XRCC1-eYFP recruitment to laser damage sites in MDAMB231 cells. Conditions: MDAMB231, 24 h of treatment with Ola (1 μM) and/or AsiDNA (16 μM). On the procedure:
FIG. 8: Olaparib inhibits XRCC1 recruitment to damage sites independently of AsiDNA. (A) Representative images of XRCC1-eYFP recruitment 40 secondes after laser damage and (B) kinetic of XRCC1-eYFP recruitment in MDAMB231 cells after 24 h of treatment with Ola (1 μM) and/or AsiDNA (16 μM). ns: not significant; ****: p<0.0001. These experiments were performed with a Leica SP5 confocal system, attached to a DMI6000 stand using a 63/1.4 objective, under a controlled environment (37° C., 5% CO2). All records were made using the appropriate sampling frequency (512_512 images, line average of four and zooming set to eight) and an argon laser line (514 nm for YFP) adapted to the fluorescent protein of interest. In the first step, two images were acquired within a period of 2-3 s at a laser energy setting sufficiently low not to induce any photodynamic damage. The 405-nm laser line (diode) was then set to maximum output for 100 ms and focused onto a single spot of constant size (176 nm) within the nucleus to cause a point of photo damage with a reproducible amount of energy. Recruitment of the protein of interest was then monitored by fluorescence using the same setting as for the pre-damage sequence. Laser damage was induced 24 h after treatment with AsiDNA (16 μM), olaparib (1 μM) or both. Images were captured at 2 s intervals for the following 52 s. […]

Molecules are shown by their SMILES.

Consider `O=C(c1cc(Cc2n[nH]c(=O)c3ccccc23)ccc1F)N1CCN(C(=O)C2CC2)CC1` [Olaparib, 4-[(3-[(4-cyclopropylcarbonyl)piperazin-4-yl]carbonyl)-4-fluorophenyl]methyl(2H)-phthalazin-1-one], for which the “Survival (%/NT)” value in assay [1] is reported as 97.2 %/NT; in assay [2], 117.3 %/NT; in assay [3] it was 85.8 %/NT. Also, the sensitivity to treatment result in assay [4] was “sensitive to both treatments”. The XRCC1 foci recruitment entry in assay [5] was “significantly delayed”.

The values are drawn from US10563197B2, “Use of a combination of Dbait molecule and PARP inhibitors to treat cancer” (INSTITUT CURIE, priority 2015, dated 2020).
